Reference: PMC6737244, “Cathelicidin Peptides Restrict Bacterial Growth via Membrane Perturbation and Induction of Reactive Oxygen Species” (mBio, 2019)
Ends that are not written are not given here.

Tests used:
Klebsiella pneumoniae C2 = assay type: cell-based
Protocol: (§1) MICs were determined by using the broth microdilution method based on the general recommendations of the Clinical and Laboratory Standards Institute (CLSI). Bacteria were grown in CAMHB overnight. They were then diluted into fresh medium the following morning and grown to early log phase. The cultures were then diluted to approximately 5 × 10^5 CFU ml^−1, and 100 μl was added to sterile 96-well polypropylene microtiter plates (Corning, NY, USA) preloaded with twofold dilutions of antimicrobial peptides. […] All MIC assays were determined from at least three independent assays.

Escherichia coli UTI89 = assay type: cell-based
Protocol: as §1

[1] = tested on: Klebsiella pneumoniae OC8893; assay type: cell-based
Protocol: as §1

[2] = tested on: Klebsiella pneumoniae 262 (NDM1+); assay type: cell-based
Protocol: as §1

[3] = tested on: Enterobacter cloacae OC4080; assay type: cell-based
Protocol: as §1

[4] = tested on: Pseudomonas aeruginosa OC4083; assay type: cell-based
Protocol: as §1

[5] = tested on: Klebsiella pneumoniae OC4110; assay type: cell-based
Protocol: as §1

Escherichia coli MC4100a = assay type: cell-based
Protocol: as §1

[6] = tested on: Klebsiella pneumoniae 88 (NDM1+); assay type: cell-based
Protocol: as §1

[7] = tested on: Pseudomonas aeruginosa PAO1; assay type: cell-based
Protocol: as §1

[8] = tested on: Klebsiella pneumoniae ATCC 700603; assay type: cell-based
Protocol: as §1

[9] = tested on: Escherichia coli ATCC 35218; assay type: cell-based
Protocol: as §1

[10] = tested on: Pseudomonas aeruginosa ATCC 27853; assay type: cell-based
Protocol: as §1

[11] = tested on: Enterobacter cloacae OC4092; assay type: cell-based
Protocol: as §1

[12] = tested on: Escherichia coli ATCC 25922; assay type: cell-based
Protocol: as §1

Escherichia coli OC4075 = assay type: cell-based
Protocol: as §1

Gram-positive bacteria = conditions: cited from earlier work
Excerpt: The human cathelicidin LL-37 has important roles in modulating inflammatory responses. […] Perhaps because they are released in response to bacterial infection and tissue injuries, LL-37 and other cathelicidins can promote wound healing and reduce fibrosis ([8][–][10]). All of these desirable activities have generated significant interest in developing cathelicidins to treat bacterial infection and injuries, however, c ...

GRFKRFRKKLKKLFKKLSPVIPLLHLG [BMAP-27B, reference compound]
MIC (Klebsiella pneumoniae C2): 4 µM
MIC (Escherichia coli UTI89): 4 µM
MIC [1]: 8 µM
MIC [2]: 4 µM
MIC [3]: 4 µM
MIC [4]: 4 µM
MIC [5]: 8 µM
MIC (Escherichia coli MC4100a): 4 µM
MIC [6]: 4 µM
MIC [7]: 4 µM
MIC [8]: 4 µM
MIC [9]: 4 µM
MIC [10]: 4 µM
MIC [11]: 4 µM
MIC [12]: 4 µM
MIC (Escherichia coli OC4075): 4 µM
Fold-higher concentration needed to reach the MICs for Gram-positive bacteria (Gram-positive bacteria): ca. 10 fold
